# Laboratory results reported in patent publication EP1911451A1, “Protein-kinase CK2 inhibitors and their therapeutic applications” (INSERM (Institut National de la Santé et de la Recherche …, priority 2006, dated 2008).
# Read-outs that look alike come from different tables or passages of the source.
# Experiments:
# CK2α [1] = target: T1, CK2α (Homo sapiens, UniProt P68400); experiment: in vitro CK2 kinase assay (inhibition of catalytic activity); type: biochemical
# Experimental: (§1) Lineweaver-Burk inhibition plots of CK2α in the presence of different concentrations of Quinobene (0; 0.1; 0.2; 0.4; 0.8 µM). • (A) variable concentrations of ATP with Peptide] = 500 µM. (B) variable concentrations of Peptide with [ATP] = 200 µM. […] Lineweaver-Burk inhibition plots of CK2α in the presence of different concentrations of CCB8 (0; 1.1; 2.2 µM for ATP competition assay; 0; 1.1 µM for peptide competition assay). (A) variable concentrations of ATP with [Peptide] = 166 µM. (B) variable concentrations of Peptide with [ATP] = 25 µM. […] A549 cells were treated for 48 hours with increasing concentrations of CCB8 (σ) or Naphtobene (ν). Cell viability was evaluated with the Cell Titer Glo kit (Promega).
# 4,4'-bis(8-hydroxy-5-sulfo-7-quinolineazo)stilbene-2,2'-disulfonic acid (Quinobene) or 4,4'-[(1-hydroxy-4-sulfo-2-naphtyl)azo] 2,2'-stilbenedisulfonic acid (Naphtobene) were obtained from the National Cancer Institute and screened for CK2 inhibitors using an in vitro CK2 kinase assay (Filhol et al., 1991).
# CCB8 was tested in the in vitro CK2 assay.
# CK2α [2] = target: T1, CK2α; experiment: Lineweaver-Burk inhibition plots (ATP and peptide competition); type: biochemical; settings: for mode of inhibition: with respect to ATP or the phosphoacceptor peptide
# Experimental: as §1
# A549 cells = experiment: Cancer cell viability (Cell Titer Glo kit); type: cell-based; settings: increasing concentrations, 48 hours
# Experimental: as §1
# A549 cells were treated with increasing concentrations of TBB 4,5,6,7-TetraBromoBenzotriazole (Calbiochem®) or Quinobene for 48 hours and the cell viability was monitored.
# [3] = test system: non-small cell lung cancer cells (A549); experiment: Confocal microscopic analysis of cell uptake; type: cell-based; settings: 100 µM, 48 hours, confocal microscopy
# [4] = inhibition of CK2 catalytic activity, dose-dependent (Figure 2), read-out: half-maximal effective concentration
# [5] = inhibition of the catalytic activity of recombinant CK2α, read-out: IC50
# T1 sequence (P68400 whole entry): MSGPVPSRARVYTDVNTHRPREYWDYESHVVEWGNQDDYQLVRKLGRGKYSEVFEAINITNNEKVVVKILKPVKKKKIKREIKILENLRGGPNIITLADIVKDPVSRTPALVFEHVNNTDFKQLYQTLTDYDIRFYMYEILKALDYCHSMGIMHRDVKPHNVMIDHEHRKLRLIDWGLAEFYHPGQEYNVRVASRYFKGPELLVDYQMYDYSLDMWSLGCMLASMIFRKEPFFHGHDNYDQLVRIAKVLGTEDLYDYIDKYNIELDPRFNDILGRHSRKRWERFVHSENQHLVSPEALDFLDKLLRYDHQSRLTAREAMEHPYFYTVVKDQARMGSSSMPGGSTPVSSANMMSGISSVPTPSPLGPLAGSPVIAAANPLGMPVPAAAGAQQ
SMILES,IC50 (CK2α [1]; inhibition of the catalytic activity of recombinant CK2α) [nM],"Ki (CK2α [2]; deduced from Lineweaver-Burk graph (Figure 5), read-out: Ki constant) [nM]",mode of inhibition (CK2α [2]),cell viability / proapoptotic efficacy (A549 cells),IC50 (CK2α [1]; [4]) [nM],IC50 (CK2α [1]; [5]) [nM],cell permeability [3]
Nc1ccc(C(=O)O)cc1N=Nc1ccc(C=Cc2ccc(N=Nc3cc(C(=O)O)ccc3N)cc2S(=O)(=O)O)c(S(=O)(=O)O)c1 [CCB8],600,85,non-competitive inhibitor,potency correlates with its proapoptotic efficacy,,,
"O=S(=O)(O)c1cc(/N=N/c2cc(S(=O)(=O)O)c3ccccc3c2O)ccc1/C=C/c1ccc(/N=N/c2cc(S(=O)(=O)O)c3ccccc3c2O)cc1S(=O)(=O)O [Naphtobene, 4,4'-[(1-hydroxy-4-sulfo-2-naphtyl)azo] 2,2'-stilbenedisulfonic acid]",,,,potency correlates with its proapoptotic efficacy,300,300,cell permeable
"O=S(=O)(O)c1cc(/N=N/c2cc(S(=O)(=O)O)c3cccnc3c2O)ccc1/C=C/c1ccc(/N=N/c2cc(S(=O)(=O)O)c3cccnc3c2O)cc1S(=O)(=O)O [Quinobene, 4,4'-bis(8-hydroxy-5-sulfo-7-quinolineazo)stilbene-2,2'-disulfonic acid]",,,non-competitive inhibitor,potency correlates with its proapoptotic efficacy,130,130,
